# Columns and labels:
# [1] = Safety, adverse events in Phase I/II study; type: in vivo; details: patients with advanced malignancies, oral MAK683
# Source text: (§1) This study is a multicenter, open label, study to establish the maximum tolerated dose (MTD) and/or recommended phase 2 dose (RP2D) and to evaluate the safety, antitumor activity and pharmacokinetic (PK) profile of MAK683 (Compound (1) of MAK683 (Compound (1) in subjects with advanced malignancies such as Diffuse Large B cell Lymphoma (DLBCL), nasopharyngeal carcinoma (NPC) or other advanced solid tumors for whom no further effective standard treatment is available. The patients will be administered MAK683 single agent orally until they experience unacceptable toxicity, progressive disease and/or treatment discontinuation at the discretion of the investigator or patient or withdrawal of consent. The phase I part plans to enroll patients with relapsed/refractory DLBCL, advanced/ metastatic nasopharyngeal carcinoma with presence of p16/CDKN2A gene and other solid tumors including castration-resistant prostate cancer, gastric cancer, OCCC, sarcoma. All patients enrolled in this part of the study will receive escalating oral doses of MAK683 in fasted condition, unless significant GI toxicity is observed, in which case dosing with moderate-fat meals may be assessed. The starting dose and regimen for the MAK683 first-in-man clinical study is about 10 mg QD. […]
# [2] = Pharmacokinetic profile of MAK683 in sequential blood samples, Phase I/II study; type: in vivo, human
# Source text: This study is a multicenter, open label, study to establish the maximum tolerated dose (MTD) and/or recommended phase 2 dose (RP2D) and to evaluate the safety, antitumor activity and pharmacokinetic (PK) profile of MAK683 (Compound (1) of MAK683 (Compound (1) in subjects with advanced malignancies such as Diffuse Large B cell Lymphoma (DLBCL), nasopharyngeal carcinoma (NPC) or other advanced solid tumors for whom no further effective standard treatment is available. The patients will be administered MAK683 single agent orally until they experience unacceptable toxicity, progressive disease and/or treatment discontinuation at the discretion of the investigator or patient or withdrawal of consent. The phase I part plans to enroll patients with relapsed/refractory DLBCL, advanced/ metastatic nasopharyngeal carcinoma with presence of p16/CDKN2A gene and other solid tumors including castration-resistant prostate cancer, gastric cancer, OCCC, sarcoma. All patients enrolled in this part of the study will receive escalating oral doses of MAK683 in fasted condition, unless significant GI toxicity is observed, in which case dosing with moderate-fat meals may be assessed. The starting dose and regimen for the MAK683 first-in-man clinical study is about 10 mg QD. Escalation will continue to about 20 mg, about 40 mg, about 80 mg, about 120 mg, about […], about […], about 240 mg, about 300 mg, about 500 mg or about 800 mg or until the MTD is reached or a RP2D is established based on emerging data.
# (§2) MAK683 was administered fasted once (QD) or twice daily (BID) on a continuous schedule in 28-day treatment cycles. The pharmacokinetic (PK) profile of MAK683 was assessed in sequential blood samples on Days 1, 8 and/or 15 of Cycles 1-6. MAK683 pharmacodynamic activity in Cycle 1, measured by change in H3K27me3, was evaluated in peripheral blood monocytes on Days 1, 8, and 15 by flow cytometry and in tumor biopsies at baseline and Day 15 by H-score.
# [3] = test system: advanced malignancies (DLBCL, nasopharyngeal carcinoma, other advanced solid tumors); experiment: Antitumor activity, overall response rate (ORR) in subjects with advanced malignancies; type: in vivo, human; details: local assessment per Cheson 2014, RECIST v1.1 and PCWG2
# Source text: as §1
# H3K27me3 [4] = experiment: Pharmacodynamic activity: H3K27me3 in tumor biopsies by H-score; type: in vivo, human; details: paired baseline-Day 15 tumor biopsies; diffuse large B-cell lymphoma (n=4) or sarcoma (n=6)
# Protocol: as §2
# H3K27me3 [5] = experiment: Pharmacodynamic activity: change in H3K27me3 in peripheral blood monocytes by flow cytometry; type: in vivo, human
# Protocol: as §2
smiles,measurement,setting,value
"Cc1ncccc1-c1cnc(NCc2c(F)ccc3c2CCO3)n2cnnc12 [MAK683, N-((5-fluoro-2,3-dihydrobenzofuran-4-yl)methyl)-8-(2-methylpyridin-3-yl)-[1,2,4]triazolo[4,3-c]pyrimidin-5-amine]",adverse events,[1],mild to moderate and did not lead to discontinuation
same,PK exposure (Cmax and AUC) dose proportionality,[2]; 800 mg QD,over-proportional
same,PK exposure (Cmax and AUC) dose proportionality,[2]; 10-500 mg QD and 60-450 mg BID,variable and broadly dose-proportional
same,accumulation after multiple doses (Racc),[2]; after multiple doses,0.8-2.3
same,half-life,"[2]; human, blood, oral, across cohorts, unchanged after multiple doses, read-out: Apparent terminal half-life (geometric mean)",150 to 312 min
same,Tmax,"[2]; human, blood, patients, oral, fasted, 10-800 mg QD or 60-450 mg BID, read-out: median Tmax",~1 h
same,Time to steady-state,"[2]; patients, QD or BID continuous dosing",~3 days
same,positive endpoint: improved overall response rate (ORR),[3],met at least one of the above endpoints
same,patients with H3K27me3 H-score reductions from baseline >40,H3K27me3 [4],7/10
same,H3K27me3/H3 ratio change from baseline in peripheral monocytes,"H3K27me3 [5]; Cycle 1, Days 1, 8, 15, across doses",substantial on-treatment reductions from baseline
same,"Maximum percentage reduction of H3K27me3/H3 ratio, relation to exposure",H3K27me3 [5]; peripheral monocytes,proportional to cumulative MAK683 AUC

# — patent US20230293529A1, “DOSING REGIMENS FOR N-((5-FLUORO-2,3-DIHYDROBENZOFURAN-4-YL)METHYL)-8-(2-METHYLPYRIDIN-3-YL)-[1,2,4]TRIAZOLO[4,3-C]PYRIMIDIN-5-AMINE, OR A PHARMACEUTICALLY ACCEPTABLE SALT THEREOF, FOR USE IN TREATING PRC2-MEDIATED DISEASES OR DISORDERS” (Novartis AG, priority 2020, published 2023)
